Test results: publication PMC3287420 (Nature chemical biology, 2011)

What was measured:
[1] = target: T1, GST-LRRK2 [A2016T] (1326-2517) (Homo sapiens, UniProt Q5S007, A2016T); settings: cited from earlier work
T1 sequence (Q5S007 1326-2527 A2016T): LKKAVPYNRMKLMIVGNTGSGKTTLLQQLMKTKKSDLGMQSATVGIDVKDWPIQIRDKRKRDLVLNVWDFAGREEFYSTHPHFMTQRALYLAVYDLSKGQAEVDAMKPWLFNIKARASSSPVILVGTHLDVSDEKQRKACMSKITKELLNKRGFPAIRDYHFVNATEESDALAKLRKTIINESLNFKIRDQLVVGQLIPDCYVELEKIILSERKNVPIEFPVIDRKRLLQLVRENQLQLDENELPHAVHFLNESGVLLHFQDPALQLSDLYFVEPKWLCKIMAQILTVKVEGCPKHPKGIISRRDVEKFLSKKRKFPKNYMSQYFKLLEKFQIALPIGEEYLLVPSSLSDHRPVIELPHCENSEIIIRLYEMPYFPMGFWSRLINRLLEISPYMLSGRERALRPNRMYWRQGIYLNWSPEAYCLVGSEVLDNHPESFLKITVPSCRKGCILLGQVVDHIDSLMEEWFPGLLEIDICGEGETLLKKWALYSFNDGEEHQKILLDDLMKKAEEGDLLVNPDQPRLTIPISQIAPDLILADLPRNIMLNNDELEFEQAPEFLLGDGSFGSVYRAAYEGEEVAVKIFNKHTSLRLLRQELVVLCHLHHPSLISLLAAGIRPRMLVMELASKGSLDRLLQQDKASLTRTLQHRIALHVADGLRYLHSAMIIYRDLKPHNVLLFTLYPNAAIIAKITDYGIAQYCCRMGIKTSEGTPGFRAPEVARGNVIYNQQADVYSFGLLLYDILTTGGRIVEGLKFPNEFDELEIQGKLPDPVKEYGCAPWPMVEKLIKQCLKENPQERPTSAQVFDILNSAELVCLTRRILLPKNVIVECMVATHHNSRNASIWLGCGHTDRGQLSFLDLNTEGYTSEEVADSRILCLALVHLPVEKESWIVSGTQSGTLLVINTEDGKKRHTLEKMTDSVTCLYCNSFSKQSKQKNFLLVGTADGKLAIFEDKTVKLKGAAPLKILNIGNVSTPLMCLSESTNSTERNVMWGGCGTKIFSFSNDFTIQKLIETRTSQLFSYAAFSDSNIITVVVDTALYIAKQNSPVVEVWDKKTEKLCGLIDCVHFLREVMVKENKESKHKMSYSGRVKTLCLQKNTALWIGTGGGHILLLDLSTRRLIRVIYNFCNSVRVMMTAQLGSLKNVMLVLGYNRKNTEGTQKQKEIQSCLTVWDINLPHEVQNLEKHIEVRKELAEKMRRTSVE

GFP-LRRK2 [A2016T] [2] = tested on: GFP-LRRK2 [A2016T]
CHEK2 [3] = target: T2, CHEK2 (Homo sapiens, UniProt O96017); assay: Invitrogen SelectScreen biochemical assay
Target sequence in this assay (O96017 whole entry, species assumed): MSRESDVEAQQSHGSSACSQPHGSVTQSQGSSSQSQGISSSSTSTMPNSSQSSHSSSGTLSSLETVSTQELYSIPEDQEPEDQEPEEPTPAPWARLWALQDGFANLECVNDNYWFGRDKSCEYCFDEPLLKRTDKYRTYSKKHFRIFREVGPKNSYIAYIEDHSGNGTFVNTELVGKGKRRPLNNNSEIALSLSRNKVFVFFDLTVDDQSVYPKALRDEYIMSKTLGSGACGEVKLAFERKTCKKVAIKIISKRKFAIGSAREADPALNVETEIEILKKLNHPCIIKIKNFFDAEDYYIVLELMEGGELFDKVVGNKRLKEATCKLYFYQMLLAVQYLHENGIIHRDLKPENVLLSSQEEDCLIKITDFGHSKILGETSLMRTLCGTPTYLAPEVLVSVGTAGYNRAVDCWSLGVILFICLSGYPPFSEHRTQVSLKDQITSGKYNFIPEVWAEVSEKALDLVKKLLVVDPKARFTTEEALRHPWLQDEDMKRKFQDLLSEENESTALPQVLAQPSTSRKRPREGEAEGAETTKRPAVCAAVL

DCLK2 = target: T3, DCLK2 (Homo sapiens, UniProt Q8N568); assay: Invitrogen SelectScreen biochemical assay
T3 sequence (Q8N568 1-766): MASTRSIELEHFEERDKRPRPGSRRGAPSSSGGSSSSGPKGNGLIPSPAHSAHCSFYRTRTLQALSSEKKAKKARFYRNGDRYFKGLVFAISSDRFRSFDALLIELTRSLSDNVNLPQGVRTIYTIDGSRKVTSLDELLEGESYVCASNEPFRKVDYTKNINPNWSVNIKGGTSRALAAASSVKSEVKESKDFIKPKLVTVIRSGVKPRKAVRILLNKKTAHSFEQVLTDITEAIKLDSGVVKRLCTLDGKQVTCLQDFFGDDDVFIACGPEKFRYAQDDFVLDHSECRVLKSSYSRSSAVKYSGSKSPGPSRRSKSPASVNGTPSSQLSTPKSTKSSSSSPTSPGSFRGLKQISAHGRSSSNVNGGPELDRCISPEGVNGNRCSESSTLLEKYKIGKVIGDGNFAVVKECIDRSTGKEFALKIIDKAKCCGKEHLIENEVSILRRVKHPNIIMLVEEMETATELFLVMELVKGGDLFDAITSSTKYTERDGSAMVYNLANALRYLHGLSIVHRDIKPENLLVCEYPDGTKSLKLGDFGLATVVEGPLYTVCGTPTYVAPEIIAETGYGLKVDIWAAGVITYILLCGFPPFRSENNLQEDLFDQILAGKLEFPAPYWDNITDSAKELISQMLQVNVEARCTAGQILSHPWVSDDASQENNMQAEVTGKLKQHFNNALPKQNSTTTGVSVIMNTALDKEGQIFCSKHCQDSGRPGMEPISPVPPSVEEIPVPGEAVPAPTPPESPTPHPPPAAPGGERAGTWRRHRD

GFP-LRRK2 = assay: Fluorescence microscopy of LRRK2 localisation, HEK 293 stable cells; type: cell-based; settings: 1 µM, 2 h time course
GFP-LRRK1 = assay: Fluorescence microscopy of LRRK1 localisation, HEK 293 stable cells; type: cell-based; settings: 1 µM, 2 hours
MKNK2 = MKNK2 (Homo sapiens, UniProt Q9HBH9); assay: Invitrogen SelectScreen biochemical assay
Sequence of MKNK2 (Q9HBH9 whole entry, species assumed): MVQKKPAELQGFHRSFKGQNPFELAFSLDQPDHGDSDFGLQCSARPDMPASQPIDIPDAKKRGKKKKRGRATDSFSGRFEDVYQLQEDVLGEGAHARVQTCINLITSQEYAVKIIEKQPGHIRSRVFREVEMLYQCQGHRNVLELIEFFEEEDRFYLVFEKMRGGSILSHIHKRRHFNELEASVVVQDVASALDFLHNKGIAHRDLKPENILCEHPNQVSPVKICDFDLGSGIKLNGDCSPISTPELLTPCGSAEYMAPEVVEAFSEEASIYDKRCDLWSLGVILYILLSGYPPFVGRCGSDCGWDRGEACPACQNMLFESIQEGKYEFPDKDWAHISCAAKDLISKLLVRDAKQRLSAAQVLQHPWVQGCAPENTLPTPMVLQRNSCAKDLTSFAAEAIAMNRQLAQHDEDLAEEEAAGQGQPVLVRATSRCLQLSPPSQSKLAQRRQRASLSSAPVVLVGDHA

MYLK = MYLK (Homo sapiens, UniProt Q15746); assay: Invitrogen SelectScreen biochemical assay
Sequence of MYLK (Q15746 whole entry, species assumed): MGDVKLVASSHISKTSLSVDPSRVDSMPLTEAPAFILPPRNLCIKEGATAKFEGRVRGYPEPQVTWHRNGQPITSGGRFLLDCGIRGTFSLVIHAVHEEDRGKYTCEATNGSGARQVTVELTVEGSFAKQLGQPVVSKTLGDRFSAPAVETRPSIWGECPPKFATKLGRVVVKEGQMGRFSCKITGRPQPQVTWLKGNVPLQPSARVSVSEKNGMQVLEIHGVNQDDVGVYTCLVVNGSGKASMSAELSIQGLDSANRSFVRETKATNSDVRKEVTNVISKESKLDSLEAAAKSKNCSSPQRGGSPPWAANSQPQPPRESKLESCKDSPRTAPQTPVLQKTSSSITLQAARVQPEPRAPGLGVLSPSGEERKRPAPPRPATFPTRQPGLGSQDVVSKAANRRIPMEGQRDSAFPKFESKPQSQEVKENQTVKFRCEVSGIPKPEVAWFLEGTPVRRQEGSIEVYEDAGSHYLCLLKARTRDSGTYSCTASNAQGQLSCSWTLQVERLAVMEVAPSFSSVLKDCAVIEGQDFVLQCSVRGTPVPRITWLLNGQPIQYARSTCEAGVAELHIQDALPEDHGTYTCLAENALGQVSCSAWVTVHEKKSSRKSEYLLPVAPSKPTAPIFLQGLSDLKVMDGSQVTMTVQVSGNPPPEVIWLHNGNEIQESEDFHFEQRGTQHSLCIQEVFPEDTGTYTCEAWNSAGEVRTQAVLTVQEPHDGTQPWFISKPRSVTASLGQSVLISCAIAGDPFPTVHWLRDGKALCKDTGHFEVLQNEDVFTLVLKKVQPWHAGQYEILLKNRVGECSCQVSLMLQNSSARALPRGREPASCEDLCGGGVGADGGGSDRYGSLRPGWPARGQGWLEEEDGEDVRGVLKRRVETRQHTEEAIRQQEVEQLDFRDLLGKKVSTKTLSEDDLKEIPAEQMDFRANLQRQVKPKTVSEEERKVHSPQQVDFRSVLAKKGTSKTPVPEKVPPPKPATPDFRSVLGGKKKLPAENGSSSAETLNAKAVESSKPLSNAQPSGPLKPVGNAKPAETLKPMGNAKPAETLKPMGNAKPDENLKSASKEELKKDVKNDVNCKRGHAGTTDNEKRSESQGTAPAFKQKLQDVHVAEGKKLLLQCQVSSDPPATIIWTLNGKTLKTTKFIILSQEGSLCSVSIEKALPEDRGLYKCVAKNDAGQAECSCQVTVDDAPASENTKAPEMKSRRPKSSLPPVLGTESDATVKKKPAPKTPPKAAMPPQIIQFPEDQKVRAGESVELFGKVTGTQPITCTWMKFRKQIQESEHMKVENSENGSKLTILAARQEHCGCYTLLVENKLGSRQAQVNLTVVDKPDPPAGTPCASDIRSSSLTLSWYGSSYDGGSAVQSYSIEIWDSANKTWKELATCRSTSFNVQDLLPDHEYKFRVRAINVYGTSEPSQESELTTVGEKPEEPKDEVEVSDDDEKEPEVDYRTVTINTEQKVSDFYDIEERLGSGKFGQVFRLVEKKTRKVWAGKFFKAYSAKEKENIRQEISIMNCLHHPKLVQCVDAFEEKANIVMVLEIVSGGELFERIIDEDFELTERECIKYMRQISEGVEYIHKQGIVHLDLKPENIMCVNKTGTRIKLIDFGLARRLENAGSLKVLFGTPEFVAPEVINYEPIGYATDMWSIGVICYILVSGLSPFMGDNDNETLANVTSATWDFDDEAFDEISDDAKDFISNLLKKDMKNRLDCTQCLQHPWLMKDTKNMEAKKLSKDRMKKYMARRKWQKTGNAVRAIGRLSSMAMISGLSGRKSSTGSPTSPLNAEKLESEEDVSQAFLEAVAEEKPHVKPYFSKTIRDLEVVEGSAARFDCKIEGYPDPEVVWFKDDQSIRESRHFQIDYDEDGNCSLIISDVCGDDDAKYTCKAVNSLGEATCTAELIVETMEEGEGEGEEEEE

GFP-LRRK2[A2016T+G2019S] [4] = tested on: GFP-LRRK2[A2016T+G2019S]
DCLK1 = assay: KiNativ; type: binding; settings: hPBMC and mouse brain tissue profiling
endogenous LRRK2 = settings: mice, 100 mg/kg intraperitoneal, 1 h and 2 h time points
GFP-LRRK2 [A2016T] [5] = assay: Fluorescence microscopy of LRRK2 localisation, HEK 293 stable cells; type: cell-based; settings: 1 µM, 2 h time course
Pharmacokinetics in mice = type: in vivo; settings: mouse, plasma, po, 10 mg/kg
[6] = tested on: kinase inactive LRRK2 {D2017A]; type: cell-based; settings: 1 µM, 2 h
AURKB = AURKB (Homo sapiens, UniProt Q96GD4); assay: Invitrogen SelectScreen biochemical assay
Sequence of AURKB (Q96GD4 whole entry, species assumed): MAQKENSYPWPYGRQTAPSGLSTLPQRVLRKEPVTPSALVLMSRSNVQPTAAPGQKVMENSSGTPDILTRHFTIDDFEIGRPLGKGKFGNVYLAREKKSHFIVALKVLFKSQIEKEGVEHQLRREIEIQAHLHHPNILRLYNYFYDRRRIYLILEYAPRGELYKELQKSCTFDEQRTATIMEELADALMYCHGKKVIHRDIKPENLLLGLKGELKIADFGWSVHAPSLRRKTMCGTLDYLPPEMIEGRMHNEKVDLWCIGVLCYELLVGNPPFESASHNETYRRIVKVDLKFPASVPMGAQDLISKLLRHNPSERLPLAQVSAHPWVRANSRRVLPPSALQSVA

LRRK2 = type: binding; settings: hPBMC and mouse brain tissue profiling
PLK1 = PLK1 (Homo sapiens, UniProt P53350); assay: Invitrogen SelectScreen biochemical assay
Sequence of PLK1 (P53350 whole entry): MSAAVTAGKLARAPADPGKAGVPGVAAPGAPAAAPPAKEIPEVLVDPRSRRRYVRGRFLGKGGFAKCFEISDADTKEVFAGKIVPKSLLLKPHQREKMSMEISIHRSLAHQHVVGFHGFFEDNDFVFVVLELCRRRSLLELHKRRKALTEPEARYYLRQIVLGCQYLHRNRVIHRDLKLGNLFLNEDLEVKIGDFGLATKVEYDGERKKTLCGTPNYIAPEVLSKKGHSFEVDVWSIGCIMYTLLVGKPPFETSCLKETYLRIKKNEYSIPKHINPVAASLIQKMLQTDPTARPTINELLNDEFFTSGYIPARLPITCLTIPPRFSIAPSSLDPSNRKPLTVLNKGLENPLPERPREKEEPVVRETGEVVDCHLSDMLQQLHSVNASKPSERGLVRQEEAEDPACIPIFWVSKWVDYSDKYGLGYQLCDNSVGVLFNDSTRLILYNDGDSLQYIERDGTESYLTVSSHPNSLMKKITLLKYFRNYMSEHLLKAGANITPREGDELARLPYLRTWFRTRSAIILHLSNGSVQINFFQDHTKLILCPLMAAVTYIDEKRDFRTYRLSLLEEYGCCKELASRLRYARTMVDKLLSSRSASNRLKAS

CHEK2 [7] = target: T2, CHEK2; assay: KiNativ; type: binding
Target sequence in this assay (O96017 whole entry): as the sequence (O96017 whole entry, species assumed) above

MAPK7 = MAPK7 (Homo sapiens, UniProt Q13164); assay: KiNativ; type: binding; settings: hPBMC and mouse brain tissue profiling
Sequence of MAPK7 (Q13164 whole entry): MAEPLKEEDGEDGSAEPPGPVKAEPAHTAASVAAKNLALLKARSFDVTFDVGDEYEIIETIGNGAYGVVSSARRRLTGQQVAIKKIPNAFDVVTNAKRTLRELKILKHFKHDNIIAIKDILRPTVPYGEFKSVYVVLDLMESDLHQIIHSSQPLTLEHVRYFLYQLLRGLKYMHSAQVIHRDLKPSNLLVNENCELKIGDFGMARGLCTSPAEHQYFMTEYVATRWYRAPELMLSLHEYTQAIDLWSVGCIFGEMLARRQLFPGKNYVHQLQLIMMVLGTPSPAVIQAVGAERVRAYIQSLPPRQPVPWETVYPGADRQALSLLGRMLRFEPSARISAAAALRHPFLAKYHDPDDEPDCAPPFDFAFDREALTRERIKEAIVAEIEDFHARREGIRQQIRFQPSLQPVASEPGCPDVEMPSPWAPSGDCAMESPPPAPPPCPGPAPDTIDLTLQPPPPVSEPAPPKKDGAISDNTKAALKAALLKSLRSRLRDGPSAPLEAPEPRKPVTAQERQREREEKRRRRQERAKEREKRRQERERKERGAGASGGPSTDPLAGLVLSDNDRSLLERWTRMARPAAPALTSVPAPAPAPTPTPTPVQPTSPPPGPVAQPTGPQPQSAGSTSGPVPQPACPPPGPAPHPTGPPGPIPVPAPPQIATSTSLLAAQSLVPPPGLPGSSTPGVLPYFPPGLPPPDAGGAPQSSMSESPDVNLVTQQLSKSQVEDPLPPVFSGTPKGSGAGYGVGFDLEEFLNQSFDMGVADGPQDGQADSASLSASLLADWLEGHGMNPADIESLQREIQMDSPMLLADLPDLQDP

GFP-LRRK2[A2016T+G2019S] [8] = assay: Fluorescence microscopy of LRRK2 localisation, HEK 293 stable cells; type: cell-based; settings: 1 µM, 2 h time course
NUAK1 = target: T4, NUAK1 (Homo sapiens, UniProt O60285); assay: Invitrogen SelectScreen biochemical assay
T4 sequence (O60285 1-661): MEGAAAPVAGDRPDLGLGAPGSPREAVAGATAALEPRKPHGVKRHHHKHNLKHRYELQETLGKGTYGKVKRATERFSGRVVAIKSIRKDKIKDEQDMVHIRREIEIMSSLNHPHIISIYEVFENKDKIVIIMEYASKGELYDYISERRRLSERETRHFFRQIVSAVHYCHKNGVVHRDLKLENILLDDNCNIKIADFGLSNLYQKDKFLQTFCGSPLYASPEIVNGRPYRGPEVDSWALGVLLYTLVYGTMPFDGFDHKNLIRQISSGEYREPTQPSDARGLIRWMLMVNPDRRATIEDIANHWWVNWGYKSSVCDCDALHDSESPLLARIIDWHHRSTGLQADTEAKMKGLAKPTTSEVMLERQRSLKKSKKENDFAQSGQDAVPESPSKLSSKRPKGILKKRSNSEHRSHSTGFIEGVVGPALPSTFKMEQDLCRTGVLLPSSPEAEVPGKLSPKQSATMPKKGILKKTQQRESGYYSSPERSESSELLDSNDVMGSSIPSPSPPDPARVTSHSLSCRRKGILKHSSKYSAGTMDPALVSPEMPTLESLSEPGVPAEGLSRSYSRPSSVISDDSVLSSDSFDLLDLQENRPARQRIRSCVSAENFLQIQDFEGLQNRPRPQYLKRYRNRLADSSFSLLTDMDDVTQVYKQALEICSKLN

Compound: Cc1cncc2cccc(S(=O)(=O)N3CCCNC[C@@H]3C)c12 [H-1152]
- fold less sensitive to inhibitor [1]: 32 fold

Compound: COc1cc(C(=O)N2CCC(N3CCN(C)CC3)CC2)ccc1Nc1ncc2c(n1)N(C)c1ccccc1C(=O)N2C [LRRK2-IN-1]
- dephosphorylation of Ser910/Ser935 (GFP-LRRK2 [A2016T] [2]): failed to induce dephosphorylation
- IC50 (CHEK2 [3]): > 1000 nM
- IC50 (DCLK2): 45 nM
- localization of LRRK2 (accumulation into aggregate structures) (GFP-LRRK2): significant accumulation
- localization of LRRK1 (GFP-LRRK1): does not change
- IC50 (MKNK2): > 1000 nM
- IC50 (MYLK): > 1000 nM
- dephosphorylation of Ser910/Ser935 (GFP-LRRK2[A2016T+G2019S] [4]): failed to induce dephosphorylation
- inhibition in KiNativ profiling (DCLK1): confirmed inhibition
- Ser910/Ser935 dephosphorylation of LRRK2 in the kidney (endogenous LRRK2): complete Ser910/Ser935 dephosphorylation
- dephosphorylation of LRRK2 Ser910 or Ser935 in brain (endogenous LRRK2): no dephosphorylation
- localization of LRRK2 (GFP-LRRK2 [A2016T] [5]): did not affect the localization
- AUC(0-inf) (Pharmacokinetics in mice): 14800 ng·h/mL
- bioavailability (Pharmacokinetics in mice): 49.3%
- dephosphorylation of Ser910/Ser935 [6]: did not induce significant dephosphorylation
- IC50 (AURKB): > 1000 nM
- inhibition in KiNativ profiling (LRRK2): confirmed inhibition
- IC50 (PLK1): > 1000 nM
- IC50 (CHEK2 [7]): > 1000 nM
- inhibition in KiNativ profiling (MAPK7): confirmed inhibition
- localization of LRRK2 (GFP-LRRK2[A2016T+G2019S] [8]): did not affect the localization
- IC50 (NUAK1): > 1000 nM

Compound: CCN(CC)CCNC(=O)c1c(C)[nH]c(/C=C2\C(=O)Nc3ccc(F)cc32)c1C [sunitinib]
- fold less sensitive to inhibitor [1]: 12 fold
